Laboratory results as given in patent publication US20240207266A1, “METHODS FOR TREATING AND MONITORING PARKINSON'S DISEASE” (Denali Therapeutics Inc., priority 2021, published 2024).
“Also recorded” adds a separate entry of the source.

Key:
[1] = system: di-22:6-BMP; conditions: monkeys; Fuji 2015, Baptista 2020; cited from earlier work
[2] = Phase 1b study in subjects with Parkinson's disease, safety and tolerability; type: in vivo, human
From the text: This study was a double-blind, placebo-controlled, parallel-design Phase 1b study with 28-day dosing, administered once daily in Parkinson's disease patients.
GERD, gastroesophageal reflux disease: TEAE, treatment-emergent adverse event. ^aProcedural related includes (in order of frequency): procedural pain, post procedural contusion, post procedural hematoma, and procedural headache; ^bHypotension and orthostatic hypotension occurred in the same two patients.
A total of 36 patients with PD (26 active, 10 placebo) were treated with up to 300 mg QD for 28 days (FIG. 8).
This was a Phase 1b, randomized, placebo-controlled, double-blind study designed to determine the safety, tolerability, PK, and pharmacodynamics of compound I in subjects with PD. The conduct of this study has been completed and the clinical study report is in progress. In Part 1, subjects were administered compound I 80 mg or placebo QD (1:1 ratio) for 28 days (n=8). In Part 2, subjects were administered compound I 80 or 130 mg or placebo QD (1:2:1 ratio) for 28 days (n=17). In Part 3, subjects were administered compound I 300 mg or placebo QD (4:1 ratio) for 28 days (n=11).

[3] = CSF penetration, CSF/unbound plasma ratio (Phase 1/1b); type: in vivo, human
[4] = system: pT73 Rab10; assay: pRab10 in PBMCs, MSD immunoassay (pathway engagement, Phase 1/1b); type: in vivo, human
Protocol: Blood was collected into CPT-sodium heparin tubes (BD BDAM362780) and PBMCs were then isolated following the manufacturer's protocol. The PBMCs were pelleted by centrifugation at maximum speed and then resuspended in PBMC lysis buffer (1× cell lysis buffer [CST catalog #9803] with PhosSTOP phosphatase inhibitor [Roche 04906837001], complete protease inhibitor [Roche 04693159001], and Benzonase [Sigma E8263]). The lysates were held on ice for 20 minutes, followed by centrifugation at maximum speed at 4° C. for 20 minutes. Supernatants were aliquoted and stored at −80° C. for later immunoassay analysis.
(§1) Capture antibodies were biotinylated using EZ-Link™ NHS-LC-LC-Biotin (Thermo Fisher, #21343), and detection antibodies were conjugated using Sulfo-TAG NHS-Ester (MSD, R31AA-1). 96-well (or 384-well) MSD GOLD Small Spot Streptavidin plates (MSD L45SSA-1) were coated with 25 μl (or 15 μl for 384 well plates) of capture antibody diluted in Diluent 100 (MSD, R50AA-2) for 1 hour at room temperature with 700 rpm shaking (1000 rpm for 384-well). After TBST wash (3×), 25 μl samples were added each well (10 μl for 384-well) and incubated at 4° C. overnight with agitation at 700 rpm. After TBST wash (3×), 25 μl of detection antibodies (15 μl for 384-well) were added each well diluted in TBST containing 25% MSD blocker A (MSD R93AA-1), together with rabbit (Rockland Antibodies D610-1000) and mouse gamma globin fraction (D609-0100). After 1 hour incubation at room temperature at 700 rpm, followed by TBST washes (3×), 150 μl MSD read buffer (MSD R92TC. 1:1 diluted with water) is added (35 μl for 384-well), and plates are read on the MSD Sector S 600.

[5] = Phase 1 first-in-human study, safety and tolerability, multiple-dose cohorts (Parts B, D, E); type: in vivo
Protocol: This double-blind, placebo-controlled Phase 1 study comprised single-ascending dose (SAD) and 10-day, 14-day, and 28-day multiple-ascending dose (MAD) parts in healthy volunteers. BID=twice daily; PBO=placebo; QD=once daily.
In a separate analysis of ≥1 TEAE in ≥2 subjects per treatment arm included the following additional TEAEs not listed above: ear pain (n=2; 105 mg QD 10-day cohort); nasopharyngitis (n=2; 225 mg QD 28-day cohort); asymptomatic COVID-19 (n=2; 400 mg BID 14-day cohort); somnolence (n=2; 250 mg BID 14-day cohort). 2 subjects also experienced presyncope associated with lumbar puncture (one each for 150 and 225 mg QD 28-day cohort).
In the Phase 1 study in healthy volunteers, the demographics of participants was as follows: • 184 HVs (145 active, 39 placebo) were treated with single or multiple once daily (QD) or twice daily (BID) doses up to 28 days in the following study Parts: • Part A (SAD; young HVs; n=48): 100% male and median age of 25 (range, 18-50) years; • Part B (10-day MAD; young HVs; n=80): 99% male and median age of 26.5 (range, 18-50) years; • Part C (SAD: elderly HVs; n=8): 50% male and median age of 69 (range, 67-74) years; • Part D (28-day MAD; young HVs; n=17): 100% male and median age of 29 (range, 18-39) years; and • E (14-day MAD: young HVs: n=31): 100% male and median age 30 (range 18-50) years.
This was a Phase 1, randomized, placebo-controlled, double-blind FIH study designed to determine the safety, tolerability. PK, and pharmacodynamics of compound I in healthy subjects.
Part B of this study was composed of sequential multiple ascending dose (MAD) cohorts. Healthy subjects were enrolled in 8 cohorts (Cohorts B1-B8; n=10/cohort) and were administered compound I 15, 30, 45, 70, 105, 150, 225, or 300 mg or placebo (4:1 ratio) QD for 10 days.
Part D was composed of a multiple-dose cohort (Cohort D1) of healthy subjects administered either compound I 225 mg (n=13) or placebo (n=4) QD for 28 days.
Part E is composed of sequential MAD cohorts. Healthy subjects in Cohort E1 were administered compound I 150 mg or placebo BID (4:1 ratio) for 14 days (n=9) and subjects in Cohort E2 were administered compound I 250 mg or placebo BID (4:1 ratio) for 14 days (n=11). Subjects in the ongoing Cohort E3 are being administered […] or placebo BID (4:1 ratio) for 14 days.

[6] = as above; type: in vivo; conditions: Part E, healthy subjects; procedural headache (250 mg BID), headache and malaise (40 mg BID)
[7] = system: BMP(22:6/22:6); assay: Urine BMP(22:6/22:6) (lysosomal engagement, Phase 1/1b); type: in vivo, human; conditions: HVs and patients with PD
From the text: BMP concentrations were normalized to creatinine concentrations (ng/mg).
Lysosomal lipid BMP 22:6/22:6 (referred to throughout the document as “BMP”) measured in urine represents a mechanistic marker of correction of the lysosomal pathways downstream of LRRK2. BMP is a lysosomal phospholipid found exclusively on the intraluminal vesicles of late endosomes and lysosomes (Bissig and Gruenberg, Cold Spring Harb Perspect Biol. 2013; 5(10):a016816). Individuals with genetic or drug-induced lysosomal function disorders, including those with G2019S LRRK2 mutations, have increased levels of urine BMP (Lecommandeur et al., J Lipid Res. 2017:58(7): 1306-14; Alcalay et al., Mov Disord. 2013; 28(14):1966-71).

[8] = Clinical safety across the Phase 1 and Phase 1b studies (conclusions); type: in vivo, human
From the text: Based on the 2-fold increase in kinase activity associated with LRRK2 G2019S point mutations, reduction of whole-blood pS935 LRRK2 of ≥50% at trough in ≥50% of the study subjects represents a minimal pharmacodynamic target.
Safety data from Phase 1 first in human study in healthy subjects and Phase 1b study in subjects with PD are summarized below.
The most common TEAE in compound I-treated participants was headache.

[9] = target: T1, pS935 LRRK2 (Homo sapiens, UniProt Q5S007); assay: pS935 LRRK2 in whole blood, MSD immunoassay (target engagement, Phase 1/1b); type: in vivo; conditions: for reduction in pS935 compared with baseline: Phase 1 healthy volunteers
T1 construct: from tissue; host or cells: human whole blood from clinical study subjects (healthy subjects, and subjects with PD in Phase 1b)
Protocol: Frozen human whole blood samples were thawed and directly lysed in 96-well plates (100 μl whole blood sample with 100 μl lysis buffer). Samples were spun down (2,500×g for 20 minutes at 4° C.) before MSD assay.
as §1

[10] = subjects with PD, 80, 130 or 300 mg QD for 28 days
[11] = subjects with PD, 80-300 mg QD for 28 days
[12] = Part B, healthy subjects, 15-300 mg QD for 10 days
[13] = Part D, healthy subjects, 225 mg QD for 28 days
[14] = Part E, healthy subjects, BID for 14 days

T1 sequence (Q5S007 whole entry): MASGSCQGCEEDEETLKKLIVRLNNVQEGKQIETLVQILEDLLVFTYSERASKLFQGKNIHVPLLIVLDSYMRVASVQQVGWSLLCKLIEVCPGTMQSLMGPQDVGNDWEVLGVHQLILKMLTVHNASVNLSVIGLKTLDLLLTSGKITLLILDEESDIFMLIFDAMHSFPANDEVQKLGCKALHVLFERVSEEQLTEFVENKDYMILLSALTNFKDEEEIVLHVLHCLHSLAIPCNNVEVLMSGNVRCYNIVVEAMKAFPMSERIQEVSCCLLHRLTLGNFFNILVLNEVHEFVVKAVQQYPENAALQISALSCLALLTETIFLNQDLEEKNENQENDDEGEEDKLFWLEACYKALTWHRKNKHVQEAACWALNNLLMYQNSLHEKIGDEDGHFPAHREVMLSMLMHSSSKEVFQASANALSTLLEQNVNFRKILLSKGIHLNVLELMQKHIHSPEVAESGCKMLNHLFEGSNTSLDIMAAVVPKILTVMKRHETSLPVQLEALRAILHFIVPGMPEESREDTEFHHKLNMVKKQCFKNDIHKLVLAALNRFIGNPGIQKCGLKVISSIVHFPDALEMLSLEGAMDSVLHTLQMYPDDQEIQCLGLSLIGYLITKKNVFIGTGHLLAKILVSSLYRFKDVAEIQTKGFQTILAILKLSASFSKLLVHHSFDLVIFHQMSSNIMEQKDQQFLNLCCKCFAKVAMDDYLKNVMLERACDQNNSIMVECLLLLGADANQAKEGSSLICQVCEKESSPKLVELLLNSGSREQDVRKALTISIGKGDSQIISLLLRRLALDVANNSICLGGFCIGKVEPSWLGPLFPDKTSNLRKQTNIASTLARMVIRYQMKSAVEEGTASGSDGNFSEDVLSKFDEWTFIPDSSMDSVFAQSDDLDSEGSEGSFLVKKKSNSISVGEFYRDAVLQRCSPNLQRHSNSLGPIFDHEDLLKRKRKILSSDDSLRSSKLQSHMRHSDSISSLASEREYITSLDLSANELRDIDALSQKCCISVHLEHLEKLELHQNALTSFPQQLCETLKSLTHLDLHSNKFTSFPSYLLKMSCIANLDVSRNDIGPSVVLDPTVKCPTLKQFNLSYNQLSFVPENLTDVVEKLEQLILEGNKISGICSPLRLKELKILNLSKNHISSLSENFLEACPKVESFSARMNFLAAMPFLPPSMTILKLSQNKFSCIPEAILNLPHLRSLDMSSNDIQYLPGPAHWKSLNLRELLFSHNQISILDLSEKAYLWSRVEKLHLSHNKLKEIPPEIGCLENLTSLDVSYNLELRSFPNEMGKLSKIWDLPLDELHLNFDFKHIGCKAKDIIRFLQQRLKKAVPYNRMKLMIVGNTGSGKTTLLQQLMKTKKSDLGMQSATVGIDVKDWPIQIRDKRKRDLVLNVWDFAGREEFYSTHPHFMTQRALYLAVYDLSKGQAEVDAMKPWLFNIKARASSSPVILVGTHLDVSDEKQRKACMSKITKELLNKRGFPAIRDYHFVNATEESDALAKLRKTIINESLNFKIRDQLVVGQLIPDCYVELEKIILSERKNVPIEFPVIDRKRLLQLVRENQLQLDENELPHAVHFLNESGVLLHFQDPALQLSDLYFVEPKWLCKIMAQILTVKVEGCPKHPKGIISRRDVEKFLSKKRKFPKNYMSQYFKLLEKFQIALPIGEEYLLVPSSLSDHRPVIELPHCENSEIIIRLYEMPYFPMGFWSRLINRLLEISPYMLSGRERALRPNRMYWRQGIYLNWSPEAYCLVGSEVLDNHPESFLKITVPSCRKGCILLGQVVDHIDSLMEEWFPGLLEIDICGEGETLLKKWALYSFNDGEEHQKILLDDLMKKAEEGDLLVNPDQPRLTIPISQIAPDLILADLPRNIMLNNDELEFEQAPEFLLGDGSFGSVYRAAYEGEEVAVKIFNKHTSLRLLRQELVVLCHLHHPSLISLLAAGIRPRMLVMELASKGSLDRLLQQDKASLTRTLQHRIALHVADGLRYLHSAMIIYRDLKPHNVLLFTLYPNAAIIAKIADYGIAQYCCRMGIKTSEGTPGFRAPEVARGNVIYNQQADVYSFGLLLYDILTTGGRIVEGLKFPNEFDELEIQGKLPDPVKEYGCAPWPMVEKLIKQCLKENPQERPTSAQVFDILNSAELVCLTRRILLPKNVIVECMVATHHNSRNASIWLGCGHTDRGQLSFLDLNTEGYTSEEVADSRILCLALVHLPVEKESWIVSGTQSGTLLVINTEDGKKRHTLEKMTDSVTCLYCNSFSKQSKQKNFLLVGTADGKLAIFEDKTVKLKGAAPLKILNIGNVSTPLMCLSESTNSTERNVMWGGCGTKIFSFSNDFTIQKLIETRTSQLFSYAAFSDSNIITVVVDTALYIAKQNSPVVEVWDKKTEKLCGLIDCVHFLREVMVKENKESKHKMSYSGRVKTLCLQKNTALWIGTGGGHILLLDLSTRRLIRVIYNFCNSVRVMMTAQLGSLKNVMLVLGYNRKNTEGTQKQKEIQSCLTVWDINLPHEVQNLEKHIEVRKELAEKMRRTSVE

CCNc1nc(Nc2cc(F)c(C(=O)N3CCOCC3)cc2OC)ncc1C(F)(F)F [GNE-7915]
urine di-22:6-BMP [1]: decreased

CNc1nc(Nc2cn(C(C)(C)C#N)nc2C)ncc1C(F)(F)F [GNE-0877]
urine di-22:6-BMP [1]: decreased

CCNc1nc(Nc2cc(C(C)(C)n3nccn3)nn2C2CC2)ncc1C(F)(F)F [compound I, N2-(3-(2-(2H-1,2,3-triazol-2-yl)propan-2-yl)-1-cyclopropyl-1H-pyrazol-5-yl)-N4-ethyl-5-(trifluoromethyl)pyrimidine-2,4-diamine]
SAEs or AESIs [2, 10]: No SAEs or AESIs were reported | tolerability [2, 10]: generally well tolerated | changes from baseline or trends in safety laboratory (including liver and renal function testing), ECG, neurological assessment, vital sign, PFT or C-SSRS results [2, 11]: No other clinically significant individual changes from baseline or notable trends | subjects who experienced ≥1 TEAE [2, 11]: 23 (88.5%) subjects (%) | subjects with moderate TEAEs [2, 11]: 5 (19%) subjects (%) | additional subjects with TEAEs of mild orthostatic hypotension / mild hypotension plus orthostatic hypotension ([2]; subjects with PD, 80 mg QD and 300 mg QD, resolved while on study drug): Two additional subjects | subjects with severe TEAEs ([2]; subjects with PD, hypotension (130 mg QD), headache (300 mg QD), both considered not related to study drug): Two subjects | CSF penetration based on the CSF/unbound plasma ratio [3]: high CSF penetration | pRab10 reduced by at least ([4]; PBMC, about 70 to 800 mg/day, stated as an aspect of the method): 44-97% | reduction of phosphorylation of Rab10 (pRab10) in PBMCs ([4]; Phase 1 HVs, trough (predose), steady state (Day 10 Cohort B, Day 28 Cohort D, Day 14 Cohort E), highest dose): ≥ 70% | pRab10 in PBMCs ([4]; Phase 1b patients with PD, trough (predose), steady state, all doses): reduced | presyncope associated with lumbar puncture ([5]; FIG. 9 legend, one each for 150 and 225 mg QD 28-day cohort): 2 subjects | changes in safety laboratory, vital signs, ECG, neurological examination, PFT or C-SSRS results [5, 12]: No clinically significant changes | deaths, other SAEs, AESIs or TEAEs leading to study drug discontinuation [5, 12]: No deaths, other SAEs (serious adverse events), AESIs (adverse events of special interests), or treatment-emergent adverse events (TEAEs) leading to study drug discontinuation were reported | subjects who experienced a severe TEAE [5, 12]: no subjects | subjects who experienced ≥1 TEAE [5, 12]: 56 (86.2%) subjects (%) | subjects who experienced ≥1 mild TEAE [5, 12]: 55 (84.6%) subjects (%) | subjects who experienced ≥1 moderate TEAE [5, 12]: 9 (13.8%) subjects (%) | tolerability ([5]; Part B, healthy subjects, multiple doses up to 300 mg QD for 10 days): generally well tolerated | changes in safety laboratory, vital sign, ECG, neurological examination, PFT or C-SSRS results [5, 13]: No other clinically significant changes | deaths, other SAEs or AESIs [5, 13]: No deaths, other SAEs, or AESIs were reported | subjects who experienced a moderate or severe TEAE [5, 13]: no subjects | subjects who experienced ≥1 TEAE [5, 13]: 10 (77%) subjects (%) | subjects who experienced ≥1 mild TEAE [5, 13]: 10 (77%) subjects (%) | tolerability [5, 13]: generally well tolerated | tolerability ([5]; Part E, Cohorts E1 and E2, healthy subjects, 150 and 250 mg BID for 14 days): generally well tolerated | subjects with moderate TEAEs ([5]; Part E, healthy subjects, 250 mg BID for 14 days): 2 subjects | SAEs or AESIs [5, 14]: No SAEs or AESIs were reported | changes in vital sign, ECG, telemetry, safety laboratory (including liver and renal function testing), PFT, neurological examination or C-SSRS results [5, 14]: No clinically significant changes | subjects who experienced 1 TEAE [5, 14]: 25 (100.0%) subjects (%) | study-drug related discontinuations ([5]; Part E, healthy subjects, one at 250 mg BID, one at 400 mg): Two study-drug related discontinuations | subjects with severe TEAEs [6]: two subjects | lysosomal lipid BMP 22:6 in urine [7]: dose-dependent reduction | most common TEAE ([8]; HVs and patients with PD): headache | changes in pulmonary or renal function ([8]; HVs and patients with PD, up to 28 days): no clinically meaningful changes | tolerability ([8]; broad range of doses, HVs and patients with PD, up to 28 days): generally well tolerated | changes in potential LRRK2 on-target renal or pulmonary function ([8]; healthy subjects and subjects with PD, up to 28 days of exposure): no apparent changes | safety and tolerability ([8]; over 200 subjects, doses up to 400 mg BID for 14 days in healthy volunteers or 225 mg for 28 days): safe and generally well tolerated | target and pathway engagement ([9]; HVs and patients with PD, at doses generally well tolerated): robust target engagement and pathway engagement; also recorded: Robust target and pathway engagement | reduction of pS935 in whole blood ([9]; Phase 1b patients with PD, trough (predose), steady state (Day 28), all dose levels studied): robust reduction | reduction in pS935 compared with baseline ([9]; whole blood, trough (predose) at steady state (Day 10 Cohort B, Day 28 Cohort D, Day 14 Cohort E), highest dose): ≥ 80% | reduction in pS935 compared with baseline ([9]; whole blood, trough (predose) at steady state, lowest clinically relevant dose): ≥ 50% | pS935 reduced by at least ([9]; whole blood, about 70 to 800 mg/day, stated as an aspect of the method): 41-97%
